Laboratory results reported in patent US7776572B2, “Method for reducing loss of enzyme activity during storage” (Corning Incorporated, priority 1996, dated 2010).

Legend:
HRP-Goat A'Mouse IgG = test: Enzymatic determination of protein binding to coated medium binding polystyrene plate; settings: coated medium binding PS; versus uncoated high binding polystyrene plate; absorbance 405 nm
Experimental: The surfactants were coated onto a medium binding polystyrene plate (Corning Costar No. 2587) as described in Material and Methods. A medium binding polystyrene plate (Corning Costar No. 2587) and a high binding polystyrene plate (Corning Costar No. 2581) were used as controls.
(a) HRP-Goat A'Mouse IgG: Kirkegaard & Perry Laboratories, Inc. Catalog No. 074-1806. Stock solution: 0.5 mg/ml; working concentration: 0.04 μg/ml. The working concentration was obtained by adding 11 μl of the stock solution per 25 mls of PBS pH 7.4 to produce a work stock (WS), and then diluting 1:6 (i.e., 10 mls WS+50 mls PBS pH 7.4).
(1) 100 μl-well of HRP-Goat A'Mouse IgG at a concentration of 0.04 μg/ml were added to the test wells and incubated for 1 hour at room temperature.
(2) The wells were then washed 5 times with the 1M wash solution. Each wash include a 5 minute soak followed by decanting.
(3) 100 μl/well of substrate (30 mls ABTS+30 mls H2O2) were added to the test wells and incubated for 15 minutes at room temperature in the dark.
(4) 100 μl/well of stopping solution (1% SDS) were added to the test wells.
(5) The plates were then shaken and read at 405 nm.
(6) Reduction in binding was determined by comparing the absorbance measured in step (5) with the absorbance measured for a high binding polystyrene plate which had not been treated with a non-ionic surfactant but otherwise subjected to steps (1) to (5).

[1] = tested on: ^125I-IgG (goat anti-mouse); test: Radiometric determination of IgG binding to surfactant-coated polystyrene microtiter wells; settings: for Total IgG binding, Non-Sterilized: coated polystyrene wells; for Total IgG binding, Non-Sterilized / Tight IgG binding, Non-Sterilized: not sterilized; for Total IgG binding, Non-Sterilized / Total IgG binding, Sterilized: after three PBS washes; for Total IgG binding, Sterilized / Tight IgG binding, Sterilized: gamma sterilized (1.5 Mrad); for Tight IgG binding, Sterilized / Tight IgG binding, Non-Sterilized: after two hours in PBS-Tween (0.05%)
Experimental: The hydrophobic surfaces used were flat bottom microtiter plates composed of high binding polystyrene (Corning Costar No. 2581) and medium binding polystyrene (Corning Costar No. 2587). Testing was performed with and without gamma radiation sterilization using cobalt 60 (1.5 Mrad).
The surfactants were applied to the test plates as described in Materials and Methods, followed by sterilization where indicated.
Levels of protein binding were determined using a radiolabeled protein, namely, ^125I-IgG (goat anti-mouse) purchased from DuPont/NEN. Unlabeled IgG in sodium carbonate buffer pH 9.2 was spiked with ^125I-IgG so that the final concentration of labeled IgG and cold IgG in the test solution was 10 μg/mL.
Aliquots of 0.1 milliliters of the protein solution were placed in quadruplicate in the wells of 8-well strips removed from the test microtiter plates. The wells were incubated overnight at 4° C. with shaking. The supernatants were removed from the wells, followed by three washes with 0.2 mL of PBS. The wells were then dried and individually counted to determine “total” IgG binding. After determining “total” binding, the wells were incubated for two hours in 0.2 mL of PBS-Tween (0.05%) at room temperature with shaking. The supernatants were removed from the wells followed by three washes with 0.2 mL of PBS. The wells were dried and individually counted to determine “tight” IgG binding.
Untreated high binding and medium binding plates were used as controls. A comparative experiment was also performed in which a BSA protein coating was used in place of a surfactant coating. The BSA was preabsorbed onto the walls of the wells and then washed to remove excess material. Testing was then performed using the radiolabeled IgG solution as described above.
Radiolabel measurements were performed in a double blind study at BioMolecular Assays (Woburn, Mass.). IgG binding values per microwell were converted to ng/cm^2 values using a surface area of 0.94 cm^2 for a 0.1 mL volume.

[2] = tested on: BSA protein (Bovine Serum Albumin, Fraction V); test: BSA binding to coated polystyrene 24-well plates at different pH, colloidal gold stain; settings: for Absorbance (550 nm) pH = 9.2: BSA 10 μg/ml in 0.10 M NaHCO3 buffer; for Absorbance (550 nm) pH = 7.4: BSA 10 μg/ml in 0.10 M PBS; for Absorbance (550 nm) pH = 4.6: BSA 10 μg/ml in 0.10 M acetate buffer
Experimental: Polystyrene plates having 24 wells (Corning Costar #9447) were coated as described in Materials and Methods.
BSA protein (Bovine Serum Albumin, Fraction V, Sigma) was prepared at 10 μg/ml in 0.10 M acetate buffer (pH=4.6), in 0.10 M PBS (pH=7.4), and in 0.10 M NaHCO3 buffer (pH=9.2). Wells of each coated plate, along with uncoated controls, were aliquoted 0.50 ml each of the protein solutions. The samples were run in triplicate.
The plates were placed on a rocker table for 30 minutes at 23° C. The protein solutions were then emptied from the plates, and the wells were rinsed three times with dl H2O. Thereafter, 1.0 ml of colloidal gold stain was added to each well (see Materials and Methods). The plates were placed on a rocker table overnight, rinsed three times with dI H2O, and air dried. Absorbance at 550 nm was then read using the Cambridge Technologies Plate Reader.

MDCK cells = test: MDCK cell attachment to coated polystyrene 24-well plates; format: cell-based; settings: coated PS 24-well, gamma sterilized, media with 5% FBS, two days, visual
Experimental: The procedures used were as follows. Polystyrene 24-well plates were coated with the non-ionic surfactants listed in Table 5 in accordance with the procedures described in Materials and Methods. Uncoated plates were used as a control. For comparison, plates with a covalently attached acrylamide coating (Corning Costar Catalog #2500) and with a stearic acid coating were also tested. The stearic acid coating was applied in the same manner as the non-ionic surfactants again using a 0.1% (w/v) solution.
The plates were gamma sterilized at 1.5 Mrad and then inoculated with 5.6×10^4 MDCK […] per well in 1 ml of complete media containing 5% FBS (Fetal Bovine Serum). Incubation was carried out at 37° C. in a 5% CO2 atmosphere for two days. The plates were fixed and stained, and cell attachment was noted. Following this, the wells were stained using the colloidal gold technique to detect bound protein. Only visual observations were made.
Experiments were also performed with cells suspended in serum. The cells used in these experiments were MDCK cells. The surfactants used were the same as used in Table 5. Again, reduced binding of the cells to surfaces treated with a non-ionic surfactant was observed.

IgG = test: Coating durability using water washes, IgG binding by colloidal gold; settings: for Absorbance (550 nm) Initial: coated polystyrene, no water wash; for Absorbance (550 nm) 1 Time 1 hr 23° C. / Absorbance (550 nm) 1 Time 24 hr 23° C. / Absorbance (550 nm) 1 Time 24 hr 37° C. / Absorbance (550 nm) 1 Time 24 hr 70° C.: dI H2O wash 1 time; for Absorbance (550 nm) 6 Times 30 min each 23° C.: dI H2O wash 6 times
Procedure, shortened: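 24-well polystyrene plates coated with surfactants; durability tested by water washes on a rocker. IgG incubated 30 minutes at 23° C. with rocking, then rinsed 3× with water.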

Molecule	% Reduction in Protein Binding (HRP-Goat A'Mouse IgG) [%]	Total IgG binding, Non-Sterilized [1] [ng/cm^2]	Total IgG binding, Sterilized [1] [ng/cm^2]	Tight IgG binding, Sterilized [1] [ng/cm^2]	Tight IgG binding, Non-Sterilized [1] [ng/cm^2]	Absorbance (550 nm) pH = 9.2 [2]	Absorbance (550 nm) pH = 7.4 [2]	Absorbance (550 nm) pH = 4.6 [2]	MDCK Attachment (MDCK cells)	Absorbance (550 nm) Initial (IgG)	Absorbance (550 nm) 1 Time 1 hr 23° C. (IgG)	Absorbance (550 nm) 1 Time 24 hr 23° C. (IgG)	Absorbance (550 nm) 1 Time 24 hr 37° C. (IgG)	Absorbance (550 nm) 1 Time 24 hr 70° C. (IgG)	Absorbance (550 nm) 6 Times 30 min each 23° C. (IgG)
CCCCCCCC/C=C\CCCCCCCCOCCOCCO [PEO(2) OLEYL ETHER]	99.9	7	22	4	5	0.00	0.00	0.00	–	–	–	–	–	–	–
CCCCCCCCCCCCOCCOCCOCCOCCO [PEO(4) LAURYL ETHER]	99.3	2	10	4	2	0.00	0.00	0.00	None	–	–	–	–	–	–
PEO(20) SORBITOL TRI-STEARATE	99.7	5	7	4	2	0.00	0.00	0.00	None	0.00	0.00	0.02	0.10	0.10	0.10
PEO(4) SORBITOL MONO-STEARATE	99.5	37	130	80	18	0.00	0.00	0.00	None	0.00	0.00	0.02	0.10	0.10	0.10
SORBITOL MONO-OLEATE	92.7	31	33	5	7	0.00	0.00	0.00	–	0.00	0.00	0.00	0.00	0.00	0.00
